Results on 68 compounds are retold here after PubChem BioAssay AID179 (DTP/NCI, 2004).

Active and inactive are the calls of the source.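 Rule for the calls: active = compounds giving half or more protection of infected cells from virus-caused growth loss, again on retest; inactive = the rest.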

In the experiment the test system is CEM cells HIV-1 protection, formazan growth assay. In words: NCI AIDS Antiviral Assay. The note with it: for IC50: measured here: growth of uninfected CEM cells. The gist of the method: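 Soluble formazan readout of cell growth; CEM cells ± HIV-1; 5 drug concs. ≥50% protection → retest; ≥50% again = moderately active; reproducible 100% = confirmed active.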

As for `CC1(C)Oc2cc3oc(=O)ccc3c3c2C2C1CCC(C)(O3)C2O` (stereo unspecified), the EC50 (as a rule, the concentration needed to bring the measured effect to its halfway point) was > 759 µM and the IC50 (commonly the concentration that inhibits the measured activity by half) turned out to be 316 µM. On to `O=C(CCN1CCCC1)CC(c1ccccc1)c1c(O)c2ccccc2oc1=O` (stereo unspecified), for which the EC50 is > 91.2 µM and the IC50 was > 91.2 µM. As to `CC(C#N)(CCC(=O)O)N=NC(C)(C#N)CCC(=O)O` (stereo unspecified), the EC50 was > 891 µM and the IC50 was > 891 µM. Turning to `COc1cc(OC)c2c(O)c3c(c(-c4ccc5cc6c(c(O)c5c4O)C(=O)CC(C)(O)C6)c2c1)CC(C)OC3C` (stereo unspecified), the outcome was inactive. For `CCOP(=O)(OCC)c1cc(-c2ccccc2)ccc1N`, the EC50 is > 200 µM and the IC50 was > 200 µM. For `CCOC(=O)c1cc(=O)n(C)c(=O)n1C`, the outcome was inactive.

For `BrC(=C(c1ccc(OC2CCCCO2)cc1)c1ccc(OC2CCCCO2)cc1)c1ccccc1` (stereo unspecified), the EC50 is 70.8 µM and the IC50 was > 200 µM. Taken in the same sequence, the figures for `CC(C)C1=Cc2ccc3c(c2C(=O)C1=O)CCCC3(C)C` were > 18.6 µM and 2.95 µM. Taken in the same sequence, the figures for `Cc1cc(C)c(-c2no/c(=N\S(=O)(=O)c3ccc(Cl)cc3)o2)c(C)c1` were > 200 µM and > 200 µM. Taken in the same sequence, the figures for `COC(=O)[C@H](CC(C)C)NC(=O)[C@H](Cc1ccccc1)N1CC2C=CC1C2` (stereo partly specified) were > 676 µM and > 676 µM. Regarding `CC(C)SC1SCC2C(=O)N(C)C3(CC3C)C(=O)OCC(NC(=O)c3nc4ccccc4cc3O)C(=O)NC(C)C(=O)N(C)C1C(=O)N(C)C1(CC1C)C(=O)OCC(NC(=O)c1nc3ccccc3cc1O)C(=O)NC(C)C(=O)N2C` (stereo unspecified), the EC50 is > 11.2 µM and the IC50 was 0.00363 µM. The like results for `COc1cc2c(cc1O)CC[C@@H]1C2CC[C@@]2(C)C1CC[C@@H]2O` (stereo partly specified) were, in that order, > 2 µM and 0.331 µM. On to `O=C1C=C/C(=C/C(O)COC(=O)c2ccccc2)O1` (stereo unspecified), for which the EC50 was > 138 µM and the IC50 stood at 77.6 µM. `COC(=O)Cc1c(C2=Nc3ccccc3C2(O)CC(=O)OC)[nH]c2ccccc12` (stereo unspecified): the EC50 was > 200 µM and the IC50 amounted to 91.2 µM. Taken in the same sequence, the figures for `CCOC(=O)CC[C@H](NC(=O)c1[nH]cnc1/N=N/N(C)C)C(=O)OCC` were > 676 µM and 339 µM. Taken in the same sequence, the figures for `N#C/C(=C1\SC(N=Nc2ccc(Cl)cc2)C(=O)N1c1ccccc1)c1nc2ccccc2[nH]1` (stereo unspecified) were > 3.8 µM and > 3.8 µM. On to `CCOC(=O)/C(=C/c1cccc2ccccc12)P(=O)(OCC)OCC`, for which the EC50 was > 257 µM and the IC50 turned out to be 17 µM. Taken in the same sequence, the figures for `CN1CCCC1CCNc1nc(C(Cl)(Cl)Cl)nc2cc(Cl)ccc12` (stereo unspecified) were > 24.5 µM and 12.9 µM. On to `O=C1C=CC(=CC=C2C=CN(CCCCCCCCCCC(=O)NCCCCCCCCCCCC(=O)O)C=C2)C=C1`, for which the result was inactive. Take `CCOc1ccccc1NC(=O)CSc1nnc(Cc2ccccc2)o1`: the EC50 is > 182 µM and the IC50 is 10 µM.

On to `COc1ccc(/C=c2/sc3n(c2=O)NC2(CCCCC2)NN=3)cc1`, for which the outcome was inactive. Turning to `c1ccc2[nH]c(C3=NCCS3)nc2c1`, the EC50 was > 1230 µM and the IC50 was 240 µM. Consider `COC1=C(C2(O)C(=O)N(C)c3ccccc32)C(=O)C(OC)=C(C2(O)C(=O)N(C)c3ccccc32)C1=O` (stereo unspecified), for which the EC50 is > 53.7 µM. In the case of `N#CC(C#N)=C1NC(=O)CC(=O)N1`, the outcome was inactive. On to `CCOc1ccc2nc(NC(=O)C(=O)C(C(=O)c3ccccc3F)C3OC(=O)c4ccccc43)sc2c1` (stereo unspecified), for which the EC50 is > 182 µM and the IC50 turned out to be 8.13 µM.

Turning to `C(=C1\CCC/C(=C/c2ccccc2)C1=NNc1ccccc1)/c1ccccc1`, the EC50 was > 14.5 µM and the half-inhibitory concentration (IC50) is > 14.5 µM. With `O=C1c2ccccc2C(=O)N1N1CC1Br` (stereo unspecified), the EC50 was > 200 µM and the IC50 is > 200 µM. As to `O=C(Nc1cc2c(cc1OCc1ccccc1)N(S(=O)(=O)c1ccccc1)[C@@H]1c3ccccc3OC[C@H]21)c1ccccc1`, the EC50 was > 200 µM and the IC50 is > 200 µM. Turning to `CC(C)(C)CC(C)(C)c1cc2c(O)c(c1)Cc1cc(C(C)(C)CC(C)(C)C)cc(c1O)Cc1cc(C(C)(C)CC(C)(C)C)cc(c1O)Cc1cc(C(C)(C)CC(C)(C)C)cc(c1O)Cc1cc(C(C)(C)CC(C)(C)C)cc(c1O)Cc1cc(C(C)(C)CC(C)(C)C)cc(c1O)Cc1cc(C(C)(C)CC(C)(C)C)cc(c1O)Cc1cc(C(C)(C)CC(C)(C)C)cc(c1O)C2`, the EC50 is > 2.04 µM and the IC50 was > 2.04 µM. As to `O=[N+]([O-])c1ccc(/C=C/c2cc(-c3ccccc3)nc3ccc4ccccc4c23)cc1`, the EC50 was > 200 µM and the IC50 was > 200 µM. As for `CN(C)c1ccc(/C=C(\C#N)c2cccc(Cl)c2)cc1`, the EC50 is > 200 µM and the IC50 was 0.0631 µM. Taken in the same sequence, the figures for `COc1ccc(C2(O)C(S(=O)(=O)c3ccc(C)cc3)=Cc3ccc(OC)cc32)cc1` (stereo unspecified) were > 200 µM and > 200 µM. The like results for `Fc1ccccc1C1CC(C(c2ccccc2)c2ccccc2)=Nc2ccccc2S1` (stereo unspecified) were, in that order, > 6.46 µM and > 6.46 µM. Regarding `COc1ccc(N=Cc2ccc(N(CCC#N)S(=O)(=O)c3ccccc3)cc2C)cc1`, the EC50 is > 219 µM and the IC50 worked out at 112 µM. On to `O=C(CCc1cccc(O)c1)NCCc1ccc(O)cc1`, for which the EC50 is 123 µM and the IC50 is > 200 µM. For the compound `O=C1C2CC=CCC2C(=O)N1n1c(Cc2ccc(Cl)cc2)n[nH]c1=O` (stereo unspecified), the EC50 was > 200 µM and the IC50 was > 200 µM. As for `CCCC(=O)Nc1ccc(O)c2c1C1CCCCCC21` (stereo unspecified), the EC50 was > 200 µM and the IC50 came out at 102 µM. The like results for `Cc1cn(C2CC(N=[N+]=[N-])C(COC(=O)[C@H]3CCC4[C@@H]5CCC6=CC(=O)CC[C@]6(C)C5[C@@H](O)C[C@@]43C)O2)c(=O)[nH]c1=O` (stereo partly specified) were, in that order, 0.138 µM and 24 µM. For the compound `CSc1nc2c(c(O)c(C)c(=O)n2C2OC(COC(C)=O)C(OC(C)=O)C(OC(C)=O)C2OC(C)=O)c(=O)n1C` (stereo unspecified), the EC50 was > 44.7 µM and the IC50 is > 44.7 µM.

With `CCN1N=CSC12C(=O)N(c1ccccc1)C(=O)N2c1ccccc1` (stereo unspecified), the outcome was inactive. As for `CC[C@H]1CN2CCc3cc(OC)c(OC)cc3[C@@H]2C[C@@H]1C[C@H]1NCCc2c1[nH]c1ccc(O)cc21`, the result was inactive. `Cn1c(=O)c2sc3cc4c(cc3c2c2ccccc21)sc1c(=O)n(C)c2ccccc2c14`: the EC50 is > 100 µM and the IC50 worked out at 61.7 µM. With `Cc1c(CCCl)c(N=[N+]=[N-])n2c(nc3ccccc32)c1C#N`, the EC50 is > 200 µM and the IC50 was 11 µM.

Take `CC(=O)NC1C(OCc2ccccc2)OC(CO)C(O)C1OC(C)C(=O)NC(C)C(=O)NC(CCC(=O)NCCCNc1c2ccccc2nc2cccc([N+](=O)[O-])c12)C(N)=O` (stereo unspecified): the EC50 is > 100 µM and the IC50 stood at 1.15 µM.

`COCN1COCN(C)C1=O`: the EC50 was > 1550 µM and the IC50 was > 1550 µM. For the compound `COc1cc2ccnc3c(=C(SC)SC)c(=O)c(c1OC)c23`, the result was inactive.

Regarding `COc1ccccc1NC(=O)C1=C(C)NC(C)=C(C(=O)Nc2ccccc2OC)C1c1ccc(C(C)C)cc1`, the result was inactive. With `CS(=O)(=O)C(=Cc1ccccc1Cl)S(C)(=O)=O`, the result was inactive. As for `CCC(C)c1c(N)o[nH]c1=O` (stereo unspecified), the EC50 was > 200 µM and the IC50 was > 200 µM. With `Cc1nc(-n2nc(-c3ccccc3)cc2-c2ccccc2)sc1C(=O)CC(=O)C(=O)Nc1ccc(Cl)c(Cl)c1`, the EC50 was > 45.7 µM and the IC50 was > 45.7 µM. On to `O=C(NC(CSSCC(NC(=O)c1cnc2ccccc2n1)C(=O)O)C(=O)O)c1cnc2ccccc2n1` (stereo unspecified), for which the EC50 is > 200 µM and the IC50 is > 200 µM. As to `Cn1c2c(c(=O)c3cc(O)ccc31)CC(O)C(C)(C)O2` (stereo unspecified), the EC50 is > 912 µM and the IC50 was 891 µM. The like results for `CN/N=C(\C(=O)Nc1ccc([N+](=O)[O-])cc1[N+](=O)[O-])C1NC(=O)NC1=O` (stereo unspecified) were, in that order, > 66.1 µM and > 66.1 µM.

For the compound `CCN(C(=O)N[C@@H](Cc1ccccc1)C(=O)N[C@@H](CC(C)C)C(=O)NC)c1ccccc1`, the EC50 was > 200 µM and the IC50 amounted to 195 µM. Taken in the same sequence, the figures for `O=C1OC(c2ccccc2)N/C1=C\c1ccc2c(c1)OCO2` (stereo unspecified) were > 200 µM and 69.2 µM. In the case of `COc1cccc(C2CCCC(C#N)C2=N)c1OC` (stereo unspecified), the EC50 was > 200 µM and the IC50 was determined as 126 µM. For the compound `CCCCn1c(=O)cc(C(=O)O)c2ccccc21`, the EC50 was > 200 µM and the IC50 is > 200 µM. With `CC(C)(C)N=C1CC(C)(C)c2ccccc2C(=Nc2ccccc2)S1`, the outcome was inactive. On to `CCOC(=O)c1c2ccccc2n2c(=O)n(-c3ccccc3)nnc12`, for which the EC50 is > 200 µM and the IC50 was 35.5 µM.

As to `C#CC(O)/C=C/C(O)CCCC(O)CC#CC(O)C#CCCCCC(O)/C=C/CCCC(O)/C=C/CCCCCCCCCCCCCC(O)C(O)C#CC(=O)O` (stereo unspecified), the EC50 was > 50.1 µM and the IC50 was found to be 28.8 µM. The like results for `CCN1CCC2(CC1)OC(c1ccccc1)C(c1ccccc1)O2` (stereo unspecified) were, in that order, > 200 µM and 112 µM. The like results for `COc1ccc([C@H]2CC3C(=O)N(c4ccc(OC)cc4)C(=O)C3c3[nH]c4ccccc4c32)cc1` (stereo partly specified) were, in that order, > 1.66 µM and > 1.66 µM. Taken in the same sequence, the figures for `COc1cc(O)c2c(c1)C(O)C(O)CC1OC1C(=O)/C=C/CC(C)OC2=O` (stereo unspecified) were > 75.9 µM and 0.977 µM.

As to `CN(/C(=N\O)c1ccccc1)c1ccccc1`, the result was inactive. On the same count and under the same terms, the same measure for `Clc1ccc(C2NCCNCc3ccccc32)cc1` (stereo unspecified): “inactive”.

For the compound `O=C(OC1CN2CCC1CC2)N(c1ccccc1)c1ccccc1` (stereo unspecified), the EC50 is > 200 µM and the IC50 was > 200 µM.

For the compound `CNP(=O)(Oc1cc(Cl)c(Cl)cc1Cl)N1CCN(c2ccccc2)CC1` (stereo unspecified), the EC50 was > 58.9 µM and the IC50 stood at 30.9 µM.

In the case of `CCCCCCCCCCCCCCCCCC(CCCCCCCCCCCCCCCCC)OP(=O)(O)O`, the result was inactive.
